Experimental data from US20200362314A1, “METHODS TO PRODUCE ADULT-LIKE CARDIOMYOCYTES DERIVED FROM INDUCED PLURIPOTENT STEM CELLS FOR DRUG DISCOVERY” (THE REGENTS OF THE UNIVERSITY OF COLORADO, A BODY CORPORATE, priority 2019, published 2020).
“Also recorded” adds a separate entry of the source. Marks after values point to notes of the source that are not given here.

What was measured:
hiPSC-CMs [1] = test: Hypertrophic response (cell area) of hiPSC-CMs; assay type: cell-based, human; details: for increase in cell area: vs vehicle
Procedure: Panels A-B show an image and graph, respectively, depicting hiPSC-CMs cultured under indication conditions and treated with vehicle, 10 μM phenylephrine (PE) or 10 μM PE and 1 μM JQ-1 (a BET Bromodomain inhibitor) for 48 hours, then fixed and stained for α-actinin (green) and Hoescht 3342 (blue). Representative images are shown in panel A. Cell area of hiPSC-CMs were quantified in panel B. Cell areas measured on 616-789 cardiomyocytes pooled from four independent inductions. Panel C is a graph depicting qPCR for B-type natriuretic peptide, normalized to 18S rRNA and shown as fold change relative to GLUC, from cDNA prepared from four independent inductions. Panels D-F depict data showing characterization of cardiac hypertrophy in Danon hiPSC-CMs under various culture conditions, and their comparison to the hypertrophy observed in human patients. In Panel D, hypertrophy (as assessed by left ventricular posterior wall thickness, LVPW) in the hearts of human patients is shown. […] Cell areas measured on 356-1056 cardiomyocytes pooled from two independent inductions. *, **, **** p<0.05, 0.01, 0.0001, Kruskal-Wallis test followed by Dunn's multiple comparison test (B,D) or one way ANOVA followed by Tukey's multiple comparison test on log2 transformed data (C).
Cell imaging studies: Cells on small unpatterned or patterned surfaces in 24 well plates were used for immunofluorescent staining. Briefly, cells were washed with PBS, then fixed either with 4% paraformaldehyde (PFA) in PBS (10 minutes at room temperature) or a 1:1 mixture of methanol and acetone (5minutes at -20° C.). After fixation, cells were washed with PBS, then permeabilized with 0.2% Triton-X 100 in PBS (10 minutes at room temperature). Methanol/acetone fixation was used for images shown in FIG. 1 (staining for α-actinin, MYBPC3, c-TNI, and MLC-2V). PFA fixation was used for all other experiments. All measurements of cell area and hypertrophy were conducted on PFA fixed cells.
For cell area measurements, cells were PFA fixed and stained for α-actinin as described above, then counterstained with HCS CellMask™ Orange (Thermo Fisher Scientific, Waltham, Mass.), diluted 1:2, 500 in PBS, for 30 minutes at room temperature.
All imaging was conducted on an EVOS FL Cell Imaging System (Thermo Fisher Scientific, Waltham, MA). All image analysis including measurements of cell area, circularity, and sarcomere length were conducted using Image J.

[2] = tested on: adult mouse ventricular cardiomyocytes (AMVCMs); test: Hypertrophic response (cell area) of adult mouse ventricular cardiomyocytes; assay type: cell-based
Procedure: (§1) Panels A-B show representative images of BNP staining and quantification of BNP and pro-NT-BNP-positive hiPSC-CMs cultured and treated as described in FIGS. 12A-B. Panels C-D show representative brightfield images and cell area of AMVCMs under indicated conditions. AMVCMs were isolated from 8-12 week old adult mice then treated with vehicle, 10 μM phenylephrine (PE) or 10 μM PE and 1 μM JQ-1 for 72 hours, then fixed. **** p<0.0001, Kruskal-Wallis test followed by Dunn's multiple comparison test. Cell areas measured on 664-706 cardiomyocytes pooled from four separate cardiomyocyte isolations.
Cardiomyocyte Isolation: 15 minutes prior to beginning isolation, mice were injected with 300 μL of heparin (10,000 units/mL). Mice were then anesthetized via inhalation of isofluorane, and when becoming unresponsive to toe pinch were killed via cervical dislocation. The chest was then opened, and the heart was removed rapidly and placed in ice-cold perfusion buffer (10 mM creatine monohydrate, 30 mM Taurine, 5.6 mM Dglucose, 4.6 mM NaHCO3, 10 mM BDM, 120 mM NaCl, 15 mM KCl, 0.6 mM Na2HPO4, 0.6 mM KH2PO4, 1.2 mM MgSO4, 10 mM Hepes, filtered at 0.40 μm, pH 7.4). The heart was washed briefly in perfusion buffer, and excess fat/thymus tissue trimmed off. […] Cells were then inspected and counted, and if <60% of myocytes were rod-shaped (viable) the cells were not used for experimentation. […]

hiPSC-CMs [3] = test: BNP / pro-NT-BNP immunofluorescent staining of hiPSC-CMs; assay type: cell-based, human; details: GLUC hiPSC-CMs; 10 μM PE, 48 hours
Procedure: as §1
For B-type natriuretic peptide (BNP) staining, an adaption of a previously published method was used: cells were PFA fixed, then blocked and permeabilized for 30 minutes with 5% milk/0.1% Triton X-100/PBS (blocking solution) for 30 minutes at room temperature. Cells were then incubated with pro-BNP antibody diluted in blocking solution overnight at 4° C. Cells were then washed four times in 0.05% Triton-X 100/PBS for 5 minutes, and incubated with secondary antibody diluted in blocking solution for hour at room temperature. Cells were then washed twice in 0.05% Triton-X 100/PBS for 5 minutes, counterstained with Hoescht 3342 as described above, and washed twice more.
All imaging was conducted on an EVOS FL Cell Imaging System (Thermo Fisher Scientific, Waltham, MA). […]

[4] = tested on: myofibrils from MPAT hiPSC-CMs; test: Myofibril mechanics of MPAT hiPSC-CMs; assay type: cell-based, human
Excerpt: FIG. 13 is graphs showing results that indicate that phenylephrine treatment induces changes in myofibril relaxation which are similar to those observed in human hypertrophic cardiomyopathy. […] Myofibrils were isolated from 4 donor and 4 HCM hearts, with at least 6 myofibrils isolated per heart. […] 44-45 myofibrils isolated per condition, pooled from 3 independent inductions. Complete tables of myofibril data from these experiments are available in Tables 4 and 5. *, **, **** p<0.05, 0.01, 0.0001, Student's t test on log2-transformed data.
To isolate myofibrils from adult mouse cardiomyocytes and stem cell derived cardiomyocytes, cells were lysed and myofibrils prepared using an adaption from a recently described method. In brief, cells were lysed in relaxing solution with protease inhibitors and 20% (w/vol) sucrose, using a scraper. The lysed cell solution was then transferred into a microfuge tube and incubated on ice for 10 minutes with periodic vortexing. The cell/myofibril solution was then centrifuged at 1,500 g for 5 minutes at 4° C., and the cell/myofibril pellet resuspended in fresh relaxing solution with protease inhibitors. This process was repeated twice to remove any residual sucrose, and the cell/myofibril solution was then homogenized.
Myofibril mechanics were quantified using the fast solution switching technique on a custom-built experimental rig. Myofibril suspensions were plated onto a temperature controlled glass coverslip (15° C.) containing relaxing solution. Single myofibrils and myofibril bundles were then picked up from the surface of this coverslip and mounted between two glass micro-tools. One tool, the stretcher, was linked to a motor which could produce rapid changes in length (Mad City Labs, Madison, Wis.), while the second tool was a calibrated cantilevered force probe (6-8 μm/μN; frequency response 2-5 KHz), which was colored with black ink to increase probe sensitivity. After mounting myofibrils between microtools, they were stretched to 5-10% above slack myofibril length. Average sarcomere lengths and myofibril diameters were measured using ImageJ software. Mounted myofibrils were then activated and relaxed by rapidly changing the position of a double-barreled pipette simultaneously releasing activating solution (pCa 4.5) and relaxing solution (pCa 9.0) from each barrel. By rapidly changing the position of the pipette, the mounted myofibril could be induced to activate and relax. From the activation/relaxation trace produced, the following parameters were acquired: resting tension, the passive tension produced in relaxing conditions, induced by a push on the stretcher; maximum tension (mN/mm2), the greatest level of active tension generated by the myofibril at full calcium activation (pCa 4.5); activation kinetics (kAct), the rate constant of tension development following myofibril activation; reactivation kinetics (kTr), the rate constant of tension redevelopment following myofibril release/stretch to break cross bridges; slow phase relaxation kinetics (kREL,SLOVV), the kinetics of the initial slow/linear phase of myofibril relaxation, slow phase relaxation time (TLIN), the duration of the slow phase of relaxation, from the switching of the pipette to relaxing solution to the beginning of the fast phase of relaxation; fast phase relaxation kinetics (kREL,FAST), the rate constant of the fast (exponential) phase of relaxation.

myofibrils from AMVCMs = test: Myofibril mechanics of AMVCMs; assay type: cell-based, mouse
Procedure: Myofibril mechanics data from AMVCMs isolated from 8-12 week old adult mice and treated with vehicle or 10 μM PE for 72 hours before myofibril isolation. Note that rodent myofibrils display profoundly faster kinetics of both activation and relaxation at baseline compared to myofibrils from human hiPSC-CMs and cardiac tissue. *, p<0.05, Student t test. 21-26 myofibrils were isolated from three separate cardiomyocyte isolations. A complete table of myofibril mechanics data on AMVCMs can be seen in Table 6.
Cardiomyocyte Isolation: 15 minutes prior to beginning isolation, mice were injected with 300 μL of heparin (10,000 units/mL). Mice were then anesthetized via inhalation of isofluorane, and when becoming unresponsive to toe pinch were killed via cervical dislocation. The chest was then opened, and the heart was removed rapidly and placed in ice-cold perfusion buffer (10 mM creatine monohydrate, 30 mM Taurine, 5.6 mM Dglucose, 4.6 mM NaHCO3, 10 mM BDM, 120 mM NaCl, 15 mM KCl, 0.6 mM Na2HPO4, 0.6 mM KH2PO4, 1.2 mM MgSO4, 10 mM Hepes, filtered at 0.40 μm, pH 7.4). The heart was washed briefly in perfusion buffer, and excess fat/thymus tissue trimmed off. The aorta was then cannulated using a blunted 20-gauge needle, and was mounted on a Langendorff apparatus (Radnoti, Covina, Calif.) with a heating pump kept at 37° C. for the duration of the isolation (VWR International, Radnor, Pa.). Hearts were mounted on the Langendorff apparatus within 3-7 minutes of removing from the body. The heart was then perfused in retrograde fashion at a rate of 4 mL/minute, driven by a Rainin™ Rabbit peristaltic pump (Mettler Toledo, Columbus, Ohio). To remove blood from the heart's vessels, it was first perfused for 3 min using perfusion buffer. Buffer was then switched to calcium-free digestion buffer (perfusion buffer with 1.3 mg/mL collagenase II) for 3 min and was then switched to digestion buffer supplemented with […] CaCl2. Hearts were perfused with high-calcium digestion buffer for another 6 to 10 minutes, once the heart became extremely soft and compliant. The heart was then removed from the cannulating needle and placed in a 60 mm culture dish with 2.5 mL high-calcium digestion buffer. The atria and right ventricle were then removed, and the left ventricle dissociated using a pipette and forceps. Once the heart was completely dissociated, digestion was halted by the addition of 7.5 mL stopping buffer (perfusion buffer with 10% (vol/vol) FBS and […] CaCl2). The cardiomyocyte suspension was then filtered through 200-μm mesh into a 50-mL conical tube, and the culture dish washed with an additional 10 mL stopping buffer, which was then filtered into the conical tube as well. This cell suspension was then allowed to incubate for 10 minutes at room temperature, allowing a cardiomyocyterich pellet to form. The fibroblast-rich supernatant was discarded, while the pellet with was resuspended in 10 mL of stopping buffer. 100 mM CaCl2 solution was then added to this buffer in a stepwise manner, with 2-min intervals between each addition: calcium concentration was first increased to 112.5 μmol/L, then to 312.5 μmol/L, then 712.5 μmol/L, and finally to 1.4 mmol/L. The cell suspension was then centrifuged at 1,000×g for 3 min at room temperature. Cells were then inspected and counted, and if <60% of myocytes were rod-shaped (viable) the cells were not used for experimentation. Cardiomyocytes were then resuspended in plating medium [perfusion buffer with 2.5% (vol/vol) FBS, 1% (vol/vol) penicillin/streptomycin (P/S), and 1.4 mM CaCl2, and plated on either 6 well plates (for myofibril mechanics) or 24 well plates (for hypertrophy imaging) coated with 9-10 μg/mL Laminin. […]

neonatal cardiomyocytes = details: in vitro; cited from earlier work
adult cardiomyocytes = details: in vitro, typical response; cited from earlier work
[5] = tested on: adult rat cardiac (ARVM) myofibrils; details: 48 hours of PE treatment; cited from earlier work
[6] = MPAT hiPSC-CMs, 10 μM PE, 48 hours, mean ± SEM

SMILES: Cc1sc2c(c1C)C(c1ccc(Cl)cc1)=N[C@@H](CC(=O)OC(C)(C)C)c1nnc(C)n1-2 [JQ-1]
- effect on cell area (hiPSC-CMs [1]; GLUC hiPSC-CMs, 10 μM PE and 1 μM JQ-1, 48 hours): profoundly reduced cell area; also recorded: reduced cell area significantly beyond baseline
- reduction of cell area relative to PE-treated cells (hiPSC-CMs [1]; MM hiPSC-CMs, 10 μM PE and 1 μM JQ-1, 48 hours): 17%
- reduction of cell area relative to PE-treated cells (hiPSC-CMs [1]; MPAT hiPSC-CMs, 10 μM PE and 1 μM JQ-1, 48 hours): 31%
- decrease in cell area ([2]; 10 μM PE and 1 μM JQ-1, 72 hours): 11%

SMILES: CNC[C@H](O)c1cccc(O)c1 [PE, phenylephrine]
- increase in cell area (hiPSC-CMs [1]; MM hiPSC-CMs, 10 μM PE, 48 hours): 29%
- increase in cell area (hiPSC-CMs [1]; MPAT hiPSC-CMs, 10 μM PE, 48 hours): 19%
- effect on cell area (hiPSC-CMs [1]; hiPSC-CMs cultured in glucose-containing medium (GLUC), 10 μM PE, 48 hours): no effect; also recorded: no hypertrophic response
- cells staining positive for BNP expression (hiPSC-CMs [3]): not increased
- increase in cell area ([2]; 10 μM PE, 72 hours): 16%
- Max. tens. [4, 6]: 44.04 ± 5.05 mN/mm^2
- Rest. tens. [4, 6]: 6.15 ± 0.90 mN/mm^2
- kACT [4, 6]: 1.03 ± 0.08 s⁻¹
- kREL, FAST [4, 6]: 8.64 ± 0.77* s^−1
- kREL, SLOW [4, 6]: 0.58 ± 0.12 s⁻¹
- kTR [4, 6]: 0.80 ± 0.06 s⁻¹
- tLIN [4, 6]: 113.6 ± 6.2**** mSec
- shortening of linear phase of relaxation ([4]; hiPSC-CMs, PE vs vehicle (Table 5)): more than 80 msec
- Max. tens. (myofibrils from AMVCMs; 10 μM PE, 72 hours, mean ± SEM): 68.55 ± 6.39 mN/mm^2
- Rest. tens. (myofibrils from AMVCMs; 10 μM PE, 72 hours, mean ± SEM): 6.94 ± 1.07 mN/mm^2
- kACT (myofibrils from AMVCMs; 10 μM PE, 72 hours, mean ± SEM): 4.45 ± 0.33 s⁻¹
- kREL, FAST (myofibrils from AMVCMs; 10 μM PE, 72 hours, mean ± SEM): 36.61 ± 4.59 s⁻¹
- kREL, SLOW (myofibrils from AMVCMs; 10 μM PE, 72 hours, mean ± SEM): 1.83 ± 0.32 s⁻¹
- kTR (myofibrils from AMVCMs; 10 μM PE, 72 hours, mean ± SEM): 3.12 ± 0.30 s⁻¹
- tLIN (myofibrils from AMVCMs; 10 μM PE, 72 hours, mean ± SEM): 45.83 ± 2.58* mSec
- shortening of linear phase of relaxation (myofibrils from AMVCMs; PE vs PBS (Table 6)): ~10 ms
- increase in cell area (neonatal cardiomyocytes): 50-100%
- increase in cell area (adult cardiomyocytes): 10-30%
- effect on myofibril calcium sensitivity [5]: increased myofibril calcium sensitivity
- effect on the kinetics of myofibril activation or relaxation [5]: no effect
